Data: patent US4294842A, “Anti-protozoal oxadiazole derivatives” (Burroughs Wellcome Co., priority 1978, dated 1981)

Assays:
P. berghei = experiment: Inhibition of P. berghei blood parasitaemia in infected mice (oral); format: in vivo; details: Plasmodium berghei, 96 h, read-out: Percentage Inhibitions of P. berghei; for inhibition in vivo at 100 mg/kg: 7 × 100 mg/kg, parasitaemia on fourth day vs untreated controls; for inhibition in vivo at 50 mg/kg: 7 × 50 mg/kg
Excerpt: Groups of five mice were inoculated intraperitoneally with the normal strain of P. berghei. The mice on test received seven oral doses of drug begining on the afternoon of the day of infection then twice a day for the following three days. Blood parasitaemias were estimated on the fourth day and compared with those of the untreated controls.
The results are given in Table 1, the results being expressed as percentage inhibition of P.berghei.

Oral LD50 in mice = details: mouse, in vivo, suspension in 0.25% Celacol
Method: The LD50 of the compound of Example 4 was determined in mice by conventional methods, the compound being administered orally as a suspension in 0.25% Celacol.

Eimeria tenella [1] = experiment: Inhibition of Eimeria tenella in monolayer cultures of chick embryo liver cells; format: cell-based; details: fixed 90 hours after infection, scale 0 to 4
Method: Monolayer cultures of chick embryo liver cells were seeded onto microtitration plates and treated with the test compound (formulated by suspension in ethanol (0.05 ml) followed by dilution with sterile water (0.95 ml). Sporozoites of Eimeria tenella in culture medium were added and the culture fixed 90 hours after infection. The percentage inhibition compared to controls was determined, the results being expressed on a sacle of 0(0-10% inhibition) to 4(91-100% inhibition). The results are given in Table 2.

Eimeria tenella [2] = experiment: Index of inhibition, 400ppm in vivo (Table 2); details: scale 0 to 4

SMILES | inhibition in vivo at 100 mg/kg (P. berghei) | Index of Inhibition (Eimeria tenella [1]; 20μg/ml) | further results
Cc1ccc(SCc2ncon2)cc1 [Example 1, 3-(4-Methylphenylthiomethyl)-1,2,4-oxadiazole] | 38% | – | –
Brc1ccc(SCc2ncon2)cc1 [Example 3, 3-(4-Bromophenylthiomethyl)-1,2,4-oxadiazole] | 71% | – | –
c1ccc(SCc2ncon2)cc1 [Example 4, 3-Phenylthiomethyl-1,2,4-oxadiazole] | 49% | – | LD50 (Oral LD50 in mice): ~1600 mg/kg
Brc1ccccc1SCc1ncon1 [Example 5, 3-(2-Bromophenylthiomethyl)-1,2,4-oxadiazole] | – | 1 | inhibition in vivo at 80 mg/kg (P. berghei; 7 × 80 mg/kg): 2%
COc1ccccc1SCc1ncon1 [Example 6, 3-(2-Methoxyphenylthiomethyl)-1,2,4-oxadiazole] | – | – | inhibition in vivo at 50 mg/kg (P. berghei): 5%
c1ccc(Sc2cccc(SCc3ncon3)c2)cc1 [Example 7, 3-(3-Phenylthiophenylthiomethyl)-1,2,4-oxadiazole] | 2% | 1 | –
Cc1cccc(SCc2ncon2)c1 [Example 8, 3-(3-Methylphenylthiomethyl)-1,2,4-oxadiazole] | – | 3 | –
Nc1cccc(SCc2ncon2)c1 [Example 9, 3-(3-Aminophenylthiomethyl)-1,2,4-oxadiazole] | 34% | 2 | –
COc1cccc(SCc2ncon2)c1 [Example 10, 3-(3-Methoxyphenylthiomethyl)-1,2,4-oxadiazole] | – | – | Index of Inhibition (Eimeria tenella [1]; 5μg/ml): 4 (91-100% inhibition)
O=[N+]([O-])c1ccc(SCc2ncon2)cc1 [Example 12, 3-(4-Nitrophenylthiomethyl)-1,2,4-oxadiazole] | 14% | 4 (91-100% inhibition) | –
COc1ccc(SCc2ncon2)cc1 [Example 13, 3-(4-Methoxyphenylthiomethyl)-1,2,4-oxadiazole] | – | 2 | –
Nc1ccc(SCc2ncon2)cc1 [Example 14, 3-(4-Aminophenylthiomethyl)-1,2,4-oxadiazole] | 41% | 2 | –
Fc1ccc(SCc2ncon2)cc1 [Example 15, 3-(4-Fluorophenylthiomethyl)-1,2,4-oxadiazole] | – | 3 | inhibition in vivo at 50 mg/kg (P. berghei): 59%
CSc1ccc(SCc2ncon2)cc1 [Example 16, 3-(4-Methylthiophenylthiomethyl)-1,2,4-oxadiazole] | 4% | 2 | –
Cc1cccc(SCc2ncon2)c1C [Example 17, 3-(2,3-Dimethylphenylthiomethyl)-1,2,4-oxadiazole] | 62% | 2 | –
Cc1ccc(SCc2ncon2)c(C)c1 [Example 18, 3-(2,4-Dimethylphenylthiomethyl)-1,2,4-oxadiazole] | 14% | 2 | –
c1ccc2c(SCc3ncon3)cccc2c1 [Example 19, 3-(1-Naphthylthiomethyl)-1,2,4-oxadiazole] | – | – | inhibition in vivo at 50 mg/kg (P. berghei): 55%
Clc1ccc(SCc2ncon2)cc1Cl [Example 20, 3-(3,4-Dichlorophenylthiomethyl)-1,2,4-oxadiazole] | – | 3 | –

SMILES | inhibition in vivo at 100 mg/kg (P. berghei) | Index of Inhibition (Eimeria tenella [1]; 20μg/ml) | further results
Clc1cc(Cl)c(SCc2ncon2)cc1Cl [Example 21, 3-(2,4-5-Trichlorophenylthiomethyl)-1,2,4-oxadiazole] | 19% | 4 (91-100% inhibition) | inhibition in vivo at 20 mg/kg (P. berghei; 7 × 20 mg/kg): 18%
Cc1nc(CSc2ccc(Br)cc2)no1 [Example 22, 3-(4-Bromophenylthiomethyl)-5-methyl-1,2,4-oxadiazole] | 46% | 2 | –
Cc1nc(CSc2cccc(C)c2C)no1 [Example 23, 3-(2,3-Dimethylphenylthiomethyl)-5-methyl-1,2,4-oxadiazole] | – | 3 | –
Cc1nc(CSc2ccc([N+](=O)[O-])cc2)no1 [Example 24, 3-(4-Nitrophenylthiomethyl)-5-methyl-1,2,4-oxadiazole] | – | 2 | –
Cc1nc(CSc2ccc(Cl)cc2)no1 [Example 25, 3-(4-Chlorophenylthiomethyl)-5-methyl-1,2,4-oxadiazole] | – | 2 | –
Brc1ccc(SCc2noc(CSc3ccc(Br)cc3)n2)cc1 [Example 26, 3,5-Di-(4-bromophenylthiomethyl)-1,2,4-oxadiazole] | 99% | 2 | –
Clc1ccc(SCc2noc(CSc3ccc(Cl)cc3)n2)cc1 [Example 27, 3,5-Di-(4-chlorophenylthiomethyl)1,2,4-oxadiazole] | 47% | – | –
Oc1ccccc1SCc1ncon1 [Example 29, 3-(2-Hydroxyphenylthiomethyl)-1,2,4-oxadiazole] | 23% | – | –
FC(F)(F)c1cccc(SCc2ncon2)c1 [Example 31, 3-(3-Trifluoromethylphenylthiomethyl)-1,2,4-oxadiazole] | – | 4 (91-100% inhibition) | –
CCCCc1ccc(SCc2ncon2)cc1 [Example 32, 3-(4-n-Butylphenylthiomethyl)-1,2,4-oxadiazole] | – | 2 | –
CN(C)c1ccc(SCc2ncon2)cc1 [Example 33, 3-(4-N,N-Dimethylaminophenylthiomethyl)-1,2,4-oxadiazole] | 19% | – | –
CC(C)(C)c1ccc(SCc2ncon2)cc1 [Example 34, 3-(4-t-Butylphenylthiomethyl)-1,2,4-oxadiazole] | 28% | – | –
Clc1ccc(SCc2ncon2)cc1 [Example 36, 3-(4-Chlorophenylthiomethyl)-1,2,4-oxadiazole] | – | – | Index of Inhibition (Eimeria tenella [2]): 4 (91-100% inhibition)
Cc1ccc(Br)c(SCc2ncon2)c1 [Example 37, 3-(2-Bromo-5-methylphenylthiomethyl)-1,2,4-oxadiazole] | – | 3 | Index of Inhibition (Eimeria tenella [1]; 5μg/ml): 2
c1ccc2cc(SCc3ncon3)ccc2c1 [Example 38, 3-(2-Naphthylthiomethyl)-1,2,4-oxadiazole] | 21% | – | –
Nc1ccccc1SCc1nc(CSc2ccc(Cl)cc2)no1 [Example 40, 5-(2-aminophenylthiomethyl)-3-(4-chlorophenylthiomethyl)-1,2,4-oxadiazole] | 18% | – | –
Nc1ccc(SCC2=NOCN2)cc1 [Example 44, 3-(4-aminophenylthiomethyl)-4,5-dihydro-1,2,4-oxadiazole] | 10% | – | –
N#CSc1ccc(SCc2ncon2)cc1 [Example 45, 3-(4-Thiocyanatophenylthiomethyl)-1,2,4-oxadiazole] | – | – | Index of Inhibition (Eimeria tenella [1]; 5μg/ml): 2; inhibition in vivo at 10 mg/kg (P. berghei; 7 × 10 mg/kg): 34%
